{"source": "patent US9474744B2", "about": "“Beta-lactam compounds for treating diabetes” (STEM CELL MEDICINE LTD., priority 2011, dated 2016)", "molecules": {"B1": {"name": "Penicillin-modified rat albumin: rat albumin modified with penicillin (conjugate, UniProt P02770 25-608, looked up)", "Albumin": "EAHKSEIAHRFKDLGEQHFKGLVLIAFSQYLQKCPYEEHIKLVQEVTDFAKTCVADENAENCDKSIHTLFGDKLCAIPKLRDNYGELADCCAKQEPERNECFLQHKDDNPNLPPFQRPEAEAMCTSFQENPTSFLGHYLHEVARRHPYFYAPELLYYAEKYNEVLTQCCTESDKAACLTPKLDAVKEKALVAAVRQRMKCSSMQRFGERAFKAWAVARMSQRFPNAEFAEITKLATDVTKINKECCHGDLLECADDRAELAKYMCENQATISSKLQACCDKPVLQKSQCLAEIEHDNIPADLPSIAADFVEDKEVCKNYAEAKDVFLGTFLYEYSRRHPDYSVSLLLRLAKKYEATLEKCCAEGDPPACYGTVLAEFQPLVEEPKNLVKTNCELYEKLGEYGFQNAVLVRYTQKAPQVSTPTLVEAARNLGRVGTKCCTLPEAQRLPCVEDYLSAILNRLCVLHEKTPVSEKVTKCCSGSLVERRPCFSALTVDETYVPKEFKAETFTFHSDICTLPDKEKQIKKQTALAELVKHKPKATEDQLKTVMGDFAQFVDKCCKAADKDNCFATEGPNLVARSKEALA", "modifications": "penicillin-modified"}}, "key": {"[1]": {"tested_on": "encephalitogenic BP10 line", "assay": "Adoptive EAE: BP10 T-cell line stimulated in vitro with test substance, then injected into naive rats", "assay_type": "in vivo, rat", "protocol": "Antigen-specific T-cell lines were established from lymph node cells that had been stimulated with myelin basic protein (MBP; 10 μg/ml) for 3 days in stimulation medium as described below. Following stimulation, the T-cell blasts were isolated on LYMPHOPREP™ (Nycomed Pharma, Oslo, Norway) and seeded in propagation medium. Propagation medium was identical to stimulation medium without autologous serum, but supplemented with fetal calf serum 10% and T-cell growth factors from the supernatant of Con A stimulated spleen cells 10% (Mor et al. (1990) J Clin Invest, 85, 1594-1598). Animals were injected intra-peritoneally with 107 MBP-stimulated T cells, following 6-8 cycles of in vitro stimulations. It is known that MBP-reactive lines undergo a reduction in pathogenicity after 6 or more in vitro stimulations. In some experiments the BP10 line was stimulated with phorbol myristate acetate (PMA; 50 ng/ml) and ionomycin (500 ng/ml) for 3 days in stimulation medium, without antigen-presenting cells.\nActive EAE was induced by subcutaneous injection of 25 μg guinea-pig MBP (GpMBP) in complete Freund's adjuvant (CFA). […] Adoptive EAE was transferred by intra-peritoneal injection of guinea-pig MBP-activated cells of the BP10 line as described in Mor et al. (1993) J Clin Invest, 92, 2199-2206. […] Clinical scoring was: +1, paralysis of tail; +1.5, paresis of posterior paws and ataxia; +2, paraplegia; +3, paralysis extending to thoracic spine; +4, a moribund state.\nTreatment with cefuroxime in vivo could affect many different host agents involved in EAE or AA as well as influencing the rats' bacterial flora. To test whether the antibiotic might directly modify the behavior of effector T cells, an encephalitogenic T-cell line was stimulated in the presence or absence of cefuroxime in vitro. The weakly encephalitogenic BP10 line was used, and was stimulated for 3 days with MBP in the presence or absence of cefuroxime (50 μg/ml). The activated T cells were then washed to remove the antibiotic, the T cells were injected intra-peritoneally into naïve recipient rats (10^7 per rat), and EAE was scored. The BP10 line at later stimulations was used, when its pathogenic potential is reduced, allowing to detect both suppression and enhancement of disease. […] To rule out antigen presenting cells (APC) as the target of the beta-lactam antibiotic, the encephalitogenic BP10 line was stimulated without APC using PMA (50 ng/ml) and Ionomycin (500 ng/ml) in the presence or absence of cefuroxime.\nAdditional beta-lactam antibiotics were tested for their effect on the adoptive transfer of EAE.\nA control group was injected with the untreated line."}, "NOD mice": {"tested_on": "NOD mice", "assay": "Development of autoimmune diabetes in NOD mice", "assay_type": "in vivo, mouse", "settings": "at 5.7 months; s.c. at weekly intervals, ampicillin 1300 μg or ceftriaxone 675 μg per mouse; blood sugar above 300 mg/dl on 2 measurements; control 60%", "text": "Inbred female Lewis rats and NOD (non-obese diabetic) mice were supplied by the animal breeding center of the Weizmann Institute of Science, Israel, under the supervision of Harlan Laboratories and were used at 2-3 months of age. Experiments were approved by the Institutional Animal Care and Use Committee. Human peripheral blood lymphocytes from healthy donors were obtained from the blood bank of Sheba Medical Center, Tel Hashomer, Israel.\nNOD mice spontaneously develop diabetes mellitus similar to type I diabetes in humans. […] The mice were followed for the development of diabetes, marked by blood sugar above 300 mg/dl on 2 measurements."}, "[2]": {"target": "T1, 67 kDa protein of human CD4 and CD8 T cells (identified as albumin) (Homo sapiens, UniProt P02768)", "T1 construct": "endogenous in cells; host or cells: primary human peripheral-blood T cells (CD3+, CD4+ or CD8+) from healthy donors", "T1 sequence (P02768 25-609)": "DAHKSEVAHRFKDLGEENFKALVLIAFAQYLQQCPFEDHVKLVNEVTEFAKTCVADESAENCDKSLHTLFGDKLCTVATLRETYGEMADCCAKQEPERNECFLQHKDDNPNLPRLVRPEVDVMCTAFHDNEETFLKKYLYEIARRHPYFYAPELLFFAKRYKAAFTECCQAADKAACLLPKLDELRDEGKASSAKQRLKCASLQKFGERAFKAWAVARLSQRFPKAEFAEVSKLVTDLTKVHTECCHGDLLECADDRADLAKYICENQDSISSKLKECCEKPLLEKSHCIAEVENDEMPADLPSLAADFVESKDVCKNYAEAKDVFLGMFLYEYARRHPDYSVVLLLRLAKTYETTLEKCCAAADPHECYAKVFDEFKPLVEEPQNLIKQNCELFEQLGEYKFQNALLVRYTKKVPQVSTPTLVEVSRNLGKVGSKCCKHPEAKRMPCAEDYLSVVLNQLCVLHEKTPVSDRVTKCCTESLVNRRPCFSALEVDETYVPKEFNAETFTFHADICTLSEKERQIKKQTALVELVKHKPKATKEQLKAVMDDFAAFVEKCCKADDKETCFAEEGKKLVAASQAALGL", "assay": "Radioactive penicillin binding assay", "settings": "10 and 20 μCi tritium-labeled, 3 days with PMA and Ionomycin; SDS-PAGE autoradiography", "text": "Tritium labeled benzylpenicillin was obtained from Amersham (Buckinghamshire, UK; 250 μCi, 1 mCi/ml). Human CD4 or CD8 T cells were stimulated in 24 well plates, 5×10^6 cells per ml, with PMA and Ionomycin for 72 hr in the presence of 10 or 20 μCi of labeled penicillin. Following stimulation, the cells were collected, lysed and separated by SDS PAGE. The gels were fixed, treated with 1M sodium salicylate, and dried. The dried gels were exposed to x-ray film (BioMax MS film) for 14 days, with intensifying screen (BioMax TranScreen, Eastman Kodak Co., New Haven Conn., USA), and were developed.\nTo test whether beta-lactam antibiotics might affect T-cell behavior likewise by covalently binding a key T-cell protein, purified CD4 or CD8 human T cells were incubated with 10 and 20 μCi of tritium-labeled lactam benzylpenicillin (Amersham, Buckinghamshire, UK) for 3 days during stimulation with PMA and Ionomycin. The stimulated T cells were collected, washed, lysed and their proteins were subjected to SDS-PAGE separation. Dried gels were exposed in intensifying screens to Xray film for 2 weeks at −80° C. […] The intensity of the band was stronger at the 20 μCi concentration of penicillin."}, "[3]": {"target": "T2, albumin of human CD3 T cells (Homo sapiens, UniProt P02768)", "T2 construct": "endogenous in cells; host or cells: primary human peripheral-blood T cells (CD3+, CD4+ or CD8+) from healthy donors", "T2 sequence (P02768 25-609)": "as above", "assay": "Western blot with Pen 9 antibody of antibiotic-treated human T cells", "assay_type": "cell-based", "settings": "T cells activated by mitogen in presence of antibiotic", "procedure": "Rat tissues were ground with a tissue grinder in lysis buffer. The homogenate was centrifuged 14000 g for 15 min in 4° C. and the supernatant was used for western blotting. The protein concentration was determined using the BIO-RAD DC™ protein assay (Bio-Rad laboratories, Hercules, Calif.). Following electrophoresis in SDS gel in a mini-gel apparatus (Bio-Rad), the gels were electro-transferred to nitrocellulose membranes (Schleicher and schuell, Dassel, Germany). The nitrocellulose membranes were washed with distilled water for 5 min, and then blocked for 60 min. using a blocking solution composed of 2% bovine serum albumin (Fraction V, Sigma, St. Louis Mo.), 2.5% milk powder (Bio-Rad), Tris (Sigma) pH 7.5 10 mM, NaCl 150 mM and 0.02% thimerosal (Sigma). After 3×10 min. washes in PBS/TWEEN® 20 (PBS/T; 0.02%, Sigma), primary antibodies (1/1000) were incubated with the membranes in PBS/TWEEN® for 60 min. Following another series of washes in PBS/T (3×10 min), the membranes were incubated with a secondary antibody (Peroxidase conjugated anti rabbit or anti mouse, IgG Jackson ImmunoResearch, West Grove, Calif.) at a 1/2500 dilution in 2% milk in PBS solution for 60 min. After another 3×10 min washes, the membranes were incubated with the ECL reagent (for 60 seconds) and exposed to X-ray film."}, "albumin": {"target": "T3, albumin (Rattus norvegicus, UniProt P02770)", "T3 construct": "Rat tissues were ground with a tissue grinder in lysis buffer; from tissue; host or cells: various tissue lysates and serum of Lewis rats, 2 hours after i.p. penicillin G", "assay": "Pen 9 western blot of rat tissue lysates after intraperitoneal penicillin G", "assay_type": "in vivo", "settings": "Lewis rats, 50 mg/rat intraperitoneally, 2 hours later", "procedure": "Rat tissues were ground with a tissue grinder in lysis buffer. The homogenate was centrifuged 14000 g for 15 min in 4° C. and the supernatant was used for western blotting. The protein concentration was determined using the BIO-RAD DC™ protein assay (Bio-Rad laboratories, Hercules, Calif.). Following electrophoresis in SDS gel in a mini-gel apparatus (Bio-Rad), the gels were electro-transferred to nitrocellulose membranes (Schleicher and schuell, Dassel, Germany). The nitrocellulose membranes were washed with distilled water for 5 min, and then blocked for 60 min. using a blocking solution composed of 2% bovine serum albumin (Fraction V, Sigma, St. Louis Mo.), 2.5% milk powder (Bio-Rad), Tris (Sigma) pH 7.5 10 mM, NaCl 150 mM and 0.02% thimerosal (Sigma). After 3×10 min. washes in PBS/TWEEN® 20 (PBS/T; 0.02%, Sigma), primary antibodies (1/1000) were incubated with the membranes in PBS/TWEEN® for 60 min. Following another series of washes in PBS/T (3×10 min), the membranes were incubated with a secondary antibody (Peroxidase conjugated anti rabbit or anti mouse, IgG Jackson ImmunoResearch, West Grove, Calif.) at a 1/2500 dilution in 2% milk in PBS solution for 60 min. After another 3×10 min washes, the membranes were incubated with the ECL reagent (for 60 seconds) and exposed to X-ray film. […]"}, "[4]": {"settings": "free penicillin; cited from earlier work"}}, "data": [{"molecule": "CO/N=C(\\C(=O)N[C@@H]1C(=O)N2C(C(=O)O)=C(CSc3nc(=O)c(=O)[nH]n3C)CS[C@H]12)c1csc(N)n1", "note": "[ceftriaxone]", "values": [{"measurement": "severity of adoptive EAE in recipient rats", "setting": "[1]; BP10 line stimulated 3 days with MBP in presence of 50 μg/ml antibiotic, 10^7 cells per rat", "result": "enhanced EAE severity"}, {"measurement": "incidence of diabetes", "setting": "NOD mice", "result": 60, "unit": "%"}]}, {"molecule": "CC1(C)S[C@@H]2[C@H](NC(=O)Cc3ccccc3)C(=O)N2[C@H]1C(=O)O", "note": "[penicillin, benzylpenicillin]", "values": [{"measurement": "radioactive penicillin-protein band in T-cell lysates", "setting": "[2]", "result": "single major penicillin-protein radioactive band was detected at 67 kD"}, {"measurement": "Pen 9 reactivity with lysates of antibiotic-treated T cells", "setting": "[3]", "result": "reacted specifically to a major protein of the penicillin-treated T cells"}, {"measurement": "67 kD band representing penicilloylated albumin in tissue lysates", "setting": "albumin", "result": "appears in all tissues examined and is most abundant in serum"}, {"measurement": "half-life", "setting": "[4]", "result": 42, "unit": "min"}]}, {"molecule": "B1", "values": [{"measurement": "severity of adoptive EAE mediated by the BP10 line", "setting": "[1]; BP10 line stimulated 3 days with 5 mg/ml in stimulation medium, control untreated line", "result": "could also enhance the encephalogenicity of the BP10 line"}]}]}
